{"source": "patent US8399383B2", "about": "“Protein chips for high throughput screening of protein activity” (Yale University, priority 2000, dated 2013)", "molecular_target": "human protein kinase A (PKA) (Homo sapiens, UniProt P17612)", "assay": "Kinase/inhibitor assay on protein chip (33P-γ-ATP phosphorylation)", "type": "biochemical", "conditions": "peptide and MBP substrates; different concentrations of inhibitor; FIG. 7", "method": "Substrates were bound to the surface of the GPTS-treated microwells on the protein chip at room temperature for one hour, then blocked with 1% BSA and 100 mM Tris pH 7.5, and washed three times with TBS buffer. Kinases and different concentrations of kinase inhibitors were added to the microwells in the presence of ^33P-γ-ATP. The phosphorylation reaction was carried out at 30° C. for thirty minutes. After completion of the reaction, the protein chip was washed extensively with TBS buffer at room temperature, and then allowed to dry. Phosphorylation signals were obtained by exposing the protein chip to either X-ray film or a phosphoimager.\nA human protein kinase A (PKA), a human map kinase (MAPK), three yeast PKA homologs (TPK1, TPK2 and TPK3), and two other yeast protein kinases (HSL1 and RCK1) were tested against two substrates (i.e., a protein substrate for PKA and a commonly used kinase substrate, MBP) using different concentrations of PKIA (a specific human PKA inhibitor) or SB202190 (a MAPK inhibitor).", "note": "Entries after “also recorded” stand apart in the source; their conditions may differ.", "data": [{"smiles": "Oc1ccc(-c2nc(-c3ccncc3)c(-c3ccc(F)cc3)[nH]2)cc1", "note": "[SB202190]", "values": [{"measurement": "inhibition of PKA activity", "result": "did not inhibit; also recorded: did not show any inhibitory effect"}]}]}
